Earlier results in patent publication US9775900B2, “Photodynamic diagnosis, formulations usable as photosensitizers for this purpose, method for the production and use thereof” (Sanochemia Pharmazeutika AG, priority 2015, dated 2017).

Details: pure hypericin

In the case of `Cc1cc(O)c2c(=O)c3c(O)cc(O)c4c5c(O)cc(O)c6c(=O)c7c(O)cc(C)c8c1c2c(c34)c(c78)c65` [hypericin, 1,3,4,6,8,13-hexahydroxy-10,11-dimethylphenanthro (1,10,9,8-opqra) perylene-7,14-dione], the solubility in water is listed as “water-insoluble”.
